{
  "source": "patent US20260325546A1",
  "about": "“METHODS OF TREATMENT USING DRY POWDER COMPOSITIONS OF TREPROSTINIL PRODRUGS” (Insmed Incorporated, priority 2024, published 2026)",
  "key": {"healthy adults": {"tested_on": "healthy adults", "experiment": "Phase I single-dose safety and tolerability study of TPIP in healthy adults", "assay_type": "in vivo, human", "experimental": "Specifically, in a Phase I safety, tolerability, and PK study, healthy adults were administered single doses of 112.5 μg, 225 μg, 450 μg, and 675 μg of a compound of Formula (II)."}, "[1]": {"tested_on": "subjects with pulmonary hypertension, including pulmonary arterial hypertension", "experiment": "Phase 2 safety and efficacy study in subjects with pulmonary hypertension", "assay_type": "in vivo, human", "experimental": "In a Phase 2 safety and efficacy study, the following doses of were investigated in subjects with pulmonary hypertension, including pulmonary arterial hypertension: 80 μg, 160 μg, 240 μg, 320 μg, 400 μg, 480 μg, and 640 μg. In this study, patients were administered a starting dose of 80 μg of the TPIP and the dose was titrated up to 640 μg according to FIG. 2."}, "[2]": {"experiment": "Nonclinical studies of TP: conversion of prodrug to treprostinil", "assay_type": "in vitro ADME", "settings": "nonclinical (in vitro and in vivo)", "source_text": "(§1) Treprostinil palmitil (TP) is a hexadecyl ester prodrug of treprostinil (TRE). In the lung, TP is hydrolyzed by esterases to TRE and hexadecanol."}, "[3]": {"experiment": "Nonclinical studies of TP: delivery / PK and PD profile", "assay_type": "in vivo", "source_text": "as §1"}, "rodent model of PAH": {"tested_on": "rodent model of PAH", "experiment": "Rodent model of PAH", "assay_type": "in vivo", "settings": "inhibits associated adverse pathology and pathophysiology", "source_text": "as §1"}, "[4]": {"experiment": "Preclinical safety / toxicology of TP", "assay_type": "in vivo", "settings": "nonclinical", "source_text": "as §1"}},
  "data": [
    {"smiles": "CCCCCCCCCCCCCCCCOC(=O)COc1cccc2c1C[C@H]1C[C@@H](O)[C@H](CC[C@@H](O)CCCCC)[C@H]1C2", "note": "[treprostinil palmitil]", "values": [
      {"measurement": "serious or severe TEAEs (printed TEALs)", "setting": "healthy adults; single doses 112.5, 225, 450, 675 μg", "result": "no serious or severe TEALs were observed"},
      {"measurement": "safety and tolerability", "setting": "healthy adults; single doses 112.5, 225, 450, 675 μg / highest doses tested", "result": "safe and well-tolerated"},
      {"measurement": "tolerability", "setting": "[1]; 80 μg to 640 μg, titrated", "result": "well tolerated"},
      {"measurement": "tolerability of 640 μg", "setting": "[1]; 640 μg, highest dose administered in a clinical trial", "result": "well tolerated"},
      {"measurement": "efficacy at higher doses", "setting": "[1]; higher doses", "result": "promising efficacy"},
      {"measurement": "conversion to treprostinil", "setting": "[2]", "result": "converted from the prodrug to the active drug, treprostinil"},
      {"measurement": "delivery of treprostinil", "setting": "[3]", "result": "sustained delivery of treprostinil to the lungs and systemic circulation"},
      {"measurement": "efficacy in PAH model", "setting": "rodent model of PAH", "result": "efficacious in a rodent model of PAH"},
      {"measurement": "preclinical safety", "setting": "[4]", "result": "did not demonstrate concerning preclinical safety or toxicological findings"}
    ]}
  ]
}
